Assay [1] has as its target T1, Human Factor XIIa (hFXIIa) (Homo sapiens, UniProt P00748).
T1 construct: purchased Enzyme Research Laboratories
T1 sequence (P00748 373-615 limits assumed): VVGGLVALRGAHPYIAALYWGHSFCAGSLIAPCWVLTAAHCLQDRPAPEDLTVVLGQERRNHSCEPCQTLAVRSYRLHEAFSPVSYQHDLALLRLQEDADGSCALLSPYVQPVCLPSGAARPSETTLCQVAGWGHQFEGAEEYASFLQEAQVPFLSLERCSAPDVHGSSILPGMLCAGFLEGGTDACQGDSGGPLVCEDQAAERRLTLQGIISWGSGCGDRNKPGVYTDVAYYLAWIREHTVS
T1 sequence (P00748 20-372 partner limits assumed): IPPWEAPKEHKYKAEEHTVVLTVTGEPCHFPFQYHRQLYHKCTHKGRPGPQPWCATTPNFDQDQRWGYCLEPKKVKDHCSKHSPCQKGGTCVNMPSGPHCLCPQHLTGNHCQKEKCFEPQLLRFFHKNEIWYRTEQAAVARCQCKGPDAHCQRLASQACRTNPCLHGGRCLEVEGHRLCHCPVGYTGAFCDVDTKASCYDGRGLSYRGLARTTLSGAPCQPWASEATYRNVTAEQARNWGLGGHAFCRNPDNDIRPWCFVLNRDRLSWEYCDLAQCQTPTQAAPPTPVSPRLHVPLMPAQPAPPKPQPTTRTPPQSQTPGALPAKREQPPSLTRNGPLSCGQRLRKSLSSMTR
As to the kind of experiment: Determination of Human Factor XIIa (hFXIIa) inhibition, fluorogenic substrate IC50 assay. It is filed as biochemical. Particulars: fluorogenic substrate H-DPro-Phe-Arg-AFC at Km, 25° C., read-out: Human FXIIa IC50. How it is done:
Determination of Human Factor XIIa (hFXIIa) inhibition
The Km for the cleavage of the substrate by hFXIIa was determined by standard transformation of the Michaelis-Menten equation, with subsequent inhibition assays performed at substrate Km concentration.

The next assay has as its target FXa (Homo sapiens, UniProt P00742). As to the kind of experiment: Related protease inhibition: FXa, fluorogenic substrate. It counts as biochemical. The settings on record: fluorogenic substrate at Km, 25° C.; H1-H3 = % activity at 40 μM. How it is done:
Human serine protease enzyme Plasma Kallikrein, KLK1, FXa, Plasmin, Thrombin and Trypsin were assayed for enzymatic activity using an appropriate fluorogenic substrate at Km concentration, FXIa at fixed substrate concentration of 100 μM and various concentrations of the test compound.

Consider 20 compounds from patent publication US20260132132A1, “3A,4,5,6-TETRAHYDRO-1 H-PYRAZOLO[3,4-C]PYRIDIN-7(7AH)-ONE DERIVATIVES AS FACTOR XIIA INHIBITORS” (KALVISTA PHARMACEUTICALS LIMITED, priority 2022, published 2026).

Broadly, the IC50 is the concentration at which inhibition is half-maximal.

Chain of FXa (P00742 235-488 limits assumed): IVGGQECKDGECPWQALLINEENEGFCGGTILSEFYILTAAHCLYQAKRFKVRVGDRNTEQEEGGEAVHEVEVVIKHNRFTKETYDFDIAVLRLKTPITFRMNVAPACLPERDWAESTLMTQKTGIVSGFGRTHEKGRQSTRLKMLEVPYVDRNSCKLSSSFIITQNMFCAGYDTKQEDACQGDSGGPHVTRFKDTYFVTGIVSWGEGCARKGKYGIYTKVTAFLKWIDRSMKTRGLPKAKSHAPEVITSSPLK
Chain of FXa (P00742 41-179 partner limits assumed): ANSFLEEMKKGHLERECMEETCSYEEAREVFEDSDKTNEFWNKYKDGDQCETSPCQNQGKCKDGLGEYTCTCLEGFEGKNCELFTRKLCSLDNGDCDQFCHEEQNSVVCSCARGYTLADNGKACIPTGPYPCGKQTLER

Consider `O=C(O)c1nn(-c2cccc(Cl)c2)c2c1CCN(c1cccc(CN3CCCCC3)c1)C2=O` [Example 1232, 1-(3-chlorophenyl)-7-oxo-6-(3-(piperidin-1-ylmethyl)phenyl)-4,5,6,7-tetrahydro-1H-pyrazolo[3,4-c]pyridine-3-carboxylic acid], for which the IC50 in assay [1] is 1 to 3 µM; at FXa, over 40 µM. `COc1cc(CNC(=O)c2nn(-c3cccc(Cl)c3)c3c2CCN(c2ccc4c(c2)C(=O)N(C)CC4)C3=O)nn1C` [Example 1186, 1-(3-chlorophenyl)-N-((5-methoxy-1-methyl-1H-pyrazol-3-yl)methyl)-6-(2-methyl-1-oxo-1,2,3,4-tetrahydroisoquinolin-7-yl)-7-oxo-4,5,6,7-tetrahydro-1H-pyrazolo[3,4-c]pyridine-3-carboxamide]: the figures for the IC50 (in assay [1]; against FXa) were 0.1 to 0.3 µM and 10 to 40 µM, respectively. Turning to `CN1CCc2ccc(N3CCc4c(C(=O)NC5COC5)nn(-c5cccc(Cl)c5)c4C3=O)cc2C1=O` [Example 1342, 1-(3-chlorophenyl)-6-(2-methyl-1-oxo-1,2,3,4-tetrahydroisoquinolin-7-yl)-N-(oxetan-3-yl)-7-oxo-4,5,6,7-tetrahydro-1H-pyrazolo[3,4-c]pyridine-3-carboxamide], the IC50 is 0.3 to 1 µM in assay [1] and over 40 µM against FXa. The matching figures for `CN1CCc2ccc(N3CCc4c(C(=O)NCc5cc(C6CC6)n[nH]5)nn(-c5cccc(Cl)c5)c4C3=O)cc2C1=O` [Example 1231, 1-(3-chlorophenyl)-N-((3-cyclopropyl-1H-pyrazol-5-yl)methyl)-6-(2-methyl-1-oxo-1,2,3,4-tetrahydroisoquinolin-7-yl)-7-oxo-4,5,6,7-tetrahydro-1H-pyrazolo[3,4-c]pyridine-3-carboxamide]: 0.1 to 0.3 µM and over 40 µM. The matching figures for `CN1CCc2ccc(N3CCc4c(CNS(C)(=O)=O)nn(-c5cccc(Cl)c5)c4C3=O)cc2C1=O` [Example 1403, N-((1-(3-chlorophenyl)-6-(2-methyl-1-oxo-1,2,3,4-tetrahydroisoquinolin-7-yl)-7-oxo-4,5,6,7-tetrahydro-1H-pyrazolo[3,4-c]pyridin-3-yl)methyl)methanesulfonamide]: 1 to 3 µM and 3 to 10 µM. As to `Cn1ccc(CNC(=O)c2nn(-c3cccc(Cl)c3)c3c2CCN(c2ccc4c(c2)CN(CCO)CC4)C3=O)n1` [Example 1132, 1-(3-chlorophenyl)-6-(2-(2-hydroxyethyl)-1,2,3,4-tetrahydroisoquinolin-7-yl)-N-((1-methyl-1H-pyrazol-3-yl)methyl)-7-oxo-4,5,6,7-tetrahydro-1H-pyrazolo[3,4-c]pyridine-3-carboxamide], the IC50 in assay [1] was in the range of 0.01 to 0.1 µM; against FXa, 10 to 40 µM. In the case of `CCNC(=O)c1nn(-c2cccc(Cl)c2C)c2c1CCN(c1ccc3c(c1)C(=O)N(C)CC3)C2=O` [Example 2036, 1-(3-chloro-2-methylphenyl)-N-ethyl-6-(2-methyl-1-oxo-1,2,3,4-tetrahydroisoquinolin-7-yl)-7-oxo-4,5,6,7-tetrahydro-1H-pyrazolo[3,4-c]pyridine-3-carboxamide], the IC50 in assay [1] was 1 to 3 µM; against FXa, over 40 µM. The matching figures for `CCNC(=O)c1nn(-c2cccc(Cl)c2)c2c(=O)n(-c3ccc4c(c3)C(=O)N(C)CC4)c(C)nc12` [Example 3022, 1-(3-chlorophenyl)-N-ethyl-5-methyl-6-(2-methyl-1-oxo-1,2,3,4-tetrahydroisoquinolin-7-yl)-7-oxo-6,7-dihydro-1H-pyrazolo[4,3-d]pyrimidine-3-carboxamide]: 0.3 to 1 µM and 10 to 40 µM. `CCN1CCOc2ccc(N3CCc4c(C(=O)NCC5CC5)nn(-c5cccc(Cl)c5)c4C3=O)cc2C1=O` [Example 1374, 1-(3-chlorophenyl)-N-(cyclopropylmethyl)-6-(4-ethyl-5-oxo-2,3,4,5-tetrahydrobenzo[f][1,4]oxazepin-7-yl)-7-oxo-4,5,6,7-tetrahydro-1H-pyrazolo[3,4-c]pyridine-3-carboxamide]: the results for the IC50 (in assay [1]; at FXa) were 0.1 to 0.3 µM and 10 to 40 µM, respectively. On to `CCNC(=O)c1nn(-c2cccc(Cl)c2)c2c1CCN(c1cccc(N3C(=O)CC[C@@H]3C)c1)C2=O` [Example 1398, (S)-1-(3-chlorophenyl)-N-ethyl-6-(3-(2-methyl-5-oxopyrrolidin-1-yl)phenyl)-7-oxo-4,5,6,7-tetrahydro-1H-pyrazolo[3,4-c]pyridine-3-carboxamide], for which the IC50 in assay [1] was 10 to 40 µM; on FXa it was over 40 µM. In the case of `Cc1nc2c(CNC(=O)C3CC3)nn(-c3cccc(Cl)c3)c2c(=O)n1-c1ccc2c(c1)CN(CCO)CC2` [Example 3008, N-((1-(3-chlorophenyl)-6-(2-(2-hydroxyethyl)-1,2,3,4-tetrahydroisoquinolin-7-yl)-5-methyl-7-oxo-6,7-dihydro-1H-pyrazolo[4,3-d]pyrimidin-3-yl)methyl)cyclopropanecarboxamide], the figures for the IC50 (in assay [1]; on FXa) were 0.3 to 1 µM and 3 to 10 µM, respectively. Turning to `CN1CCc2ccc(N3CCc4c(C(=O)NCCO)nn(-c5cccc(Cl)c5)c4C3=O)cc2C1=O` [Example 1340, 1-(3-chlorophenyl)-N-(2-hydroxyethyl)-6-(2-methyl-1-oxo-1,2,3,4-tetrahydroisoquinolin-7-yl)-7-oxo-4,5,6,7-tetrahydro-1H-pyrazolo[3,4-c]pyridine-3-carboxamide], the IC50 in assay [1] is 0.3 to 1 µM; against FXa, over 40 µM.

With `Cc1cc(CN)cc(-n2nc(C(=O)O)c3c2C(=O)N(c2ccc4c(c2)C(=O)N(C)CC4)CC3)c1` [Example 2025, 1-(3-(aminomethyl)-5-methylphenyl)-6-(2-methyl-1-oxo-1,2,3,4-tetrahydroisoquinolin-7-yl)-7-oxo-4,5,6,7-tetrahydro-1H-pyrazolo[3,4-c]pyridine-3-carboxylic acid], the IC50 in assay [1] lay within 0.01 to 0.1 µM; at FXa, 10 to 40 µM. For `O=C(NCc1ccn(C2CC2)n1)c1nn(-c2cccc(Cl)c2)c2c1CCN(c1ccc3c(c1)CN(CCO)CC3)C2=O` [Example 1146, 1-(3-chlorophenyl)-N-((1-cyclopropyl-1H-pyrazol-3-yl)methyl)-6-(2-(2-hydroxyethyl)-1,2,3,4-tetrahydroisoquinolin-7-yl)-7-oxo-4,5,6,7-tetrahydro-1H-pyrazolo[3,4-c]pyridine-3-carboxamide], in that order: 0.01 to 0.1 µM and 10 to 40 µM. The matching figures for `COCCN1CCc2ccc(N3CCc4c(C(=O)NCC5CC5)nn(-c5cccc(Cl)c5)c4C3=O)cc2C1=O` [Example 1261, 1-(3-chlorophenyl)-N-(cyclopropylmethyl)-6-(2-(2-methoxyethyl)-1-oxo-1,2,3,4-tetrahydroisoquinolin-7-yl)-7-oxo-4,5,6,7-tetrahydro-1H-pyrazolo[3,4-c]pyridine-3-carboxamide]: 0.3 to 1 µM and over 40 µM. Take `O=C(NCC1CC1)c1nn(-c2cccc(Cl)c2)c2c1CCN(c1ccc3c(c1)C(=O)N(CCO)CC3)C2=O` [Example 1216, 1-(3-chlorophenyl)-N-(cyclopropylmethyl)-6-(2-(2-hydroxyethyl)-1-oxo-1,2,3,4-tetrahydroisoquinolin-7-yl)-7-oxo-4,5,6,7-tetrahydro-1H-pyrazolo[3,4-c]pyridine-3-carboxamide]: the figures for the IC50 (in assay [1]; against FXa) were 0.1 to 0.3 µM and over 40 µM, respectively. The matching figures for `CCNC(=O)c1nn(-c2cc(Cl)ccc2F)c2c1CCN(c1ccc3c(c1)C(=O)N(C)CC3)C2=O` [Example 2030, 1-(5-chloro-2-fluorophenyl)-N-ethyl-6-(2-methyl-1-oxo-1,2,3,4-tetrahydroisoquinolin-7-yl)-7-oxo-4,5,6,7-tetrahydro-1H-pyrazolo[3,4-c]pyridine-3-carboxamide]: 3 to 10 µM and 10 to 40 µM. The matching figures for `CN1CCc2ccc(N3CCc4c(C(=O)NCC5CC5)nn(-c5cccc(Cl)c5)c4C3=O)cc2C1` [Example 1012, 1-(3-chlorophenyl)-N-(cyclopropylmethyl)-6-(2-methyl-1,2,3,4-tetrahydroisoquinolin-7-yl)-7-oxo-4,5,6,7-tetrahydro-1H-pyrazolo[3,4-c]pyridine-3-carboxamide]: 0.3 to 1 µM and 10 to 40 µM. For `CC1CCN(Cc2cccc(N3CCc4c(C(=O)NCc5ccccc5)nn(-c5cccc(Cl)c5)c4C3=O)c2)C1` (centres unmarked) [Example 1038, N-benzyl-1-(3-chlorophenyl)-6-(3-((3-methylpyrrolidin-1-yl)methyl)phenyl)-7-oxo-4,5,6,7-tetrahydro-1H-pyrazolo[3,4-c]pyridine-3-carboxamide], in assay [1], the IC50 was in the range of 0.3 to 1 µM.

As to `Cn1cc(CNC(=O)c2nn(-c3cccc(Cl)c3)c3c2CCN(c2ccc4c(c2)CN(CCO)CC4)C3=O)cn1` [Example 1133, 1-(3-chlorophenyl)-6-(2-(2-hydroxyethyl)-1,2,3,4-tetrahydroisoquinolin-7-yl)-N-((1-methyl-1H-pyrazol-4-yl)methyl)-7-oxo-4,5,6,7-tetrahydro-1H-pyrazolo[3,4-c]pyridine-3-carboxamide], the IC50 in assay [1] fell in the range of 0.1 to 0.3 µM.
